In patent publication US10414778B2, “Methods for treatment of resistant cancer” (New Mexico Tech University Research Park Corporation, priority 2016, dated 2019):
Read-outs that look alike come from different tables or passages of the source.

Key:
Hs683 cells = assay: MTT growth inhibition, Hs683 glioma; format: cell-based, human; settings: Homo sapiens
Procedure: (§1) Human cancer cell lines were obtained from the American Type Culture Collection (ATCC, Manassas, Va., USA), the European Collection of Cell Culture (ECACC, Salisbury, UK), and the Deutsche Sammlung von Mikroorganismen und Zellkulturen (DSMZ, Braunschweig, Germany). Human cervical adenocarcinoma HeLa cells were cultured in DMEM supplemented with 10% fetal bovine serum (FBS). Human mammary carcinoma MCF-7 cells were cultured in RPMI supplemented with 10% FBS. The U87 cells (ATCC HTB-14) were cultured in DMEM culture medium, while the A549 cells (DSMZ ACC107) were cultured in RPMI culture medium supplemented with 10% heat-inactivated FBS. The GBM Hs683 (ATCC HTB-138) and the T98G (ATCC CRL-1690) cell lines were cultivated in DMEM supplemented with 10% FBS. The GBM U251 cells (ECACC code 09063001) were cultured in 10% MEM. The human uterine sarcoma MES-SA and MES-SA/Dx5 cells were cultured in RPMI-1640 medium supplemented with 10% FBS with MES SA/Dx5 maintained in the presence of 500 nM Doxorubicin (Sigma™). The U373 glioblastoma cells (ECACC 08061901) were cultured in RPMI culture medium supplemented with 10% heat-inactivated FBS.
(§2) All compounds were dissolved in DMSO at a concentration of either 100 mM or 50 mM prior to cell treatment. The cells were trypsinized and seeded at various cell concentrations depending on the cell type. The cells were grown for 24 h to 72 h, treated with compounds at concentrations ranging from 0.001 to 100 μM, and incubated for 48, 72, or 96 h in 100 or 200 μL media depending on the cell line used. Cells treated with 0.1% DMSO were used as a negative control, and cells treated with 1 μM phenyl arsine oxide (PAO) were used as a positive control.
(§3) Compound 4l was evaluated for in vitro growth inhibition against a panel of cancer cell lines, including U373, U251, U87, T98G, human GBM, and A549 NSCLC. […] Compound 4l was also evaluated for in vitro growth inhibition against the apoptosis-sensitive tumor model Hs683 anaplastic oligodendroglioma as a reference.
(§4) Due to their high potencies, compounds 5l and 5g were used to determine the effects of the compounds on drug-resistant tumor cells. Drug-resistant cell lines (i.e., glioma: Hs683, U373, U251, U87, T98G; lung cancer: A549, H2073; uterine carcinoma: MES-SA/Dx5) were complemented with drug-sensitive cell lines, H1993 lung cancer and MES-SA uterine cancer, which were used as controls. Bulbispermine and paclitaxel were also used as controls. The GI50 values were calculated after 48-96 hours of treatment with the indicated compounds in replicate using the MTT growth assay.

U373 glioblastoma cells = assay: MTT growth inhibition, U373 glioma; format: cell-based, human; settings: Homo sapiens, U373 MG
Procedure: as §1, §2, §3, §4

U251 cells = assay: MTT growth inhibition, U251 glioma; format: cell-based, human; settings: Homo sapiens
Procedure: as §1, §2, §3, §4

H1993 cells = assay: MTT growth inhibition, H1993 NSCLC; format: cell-based; settings: Homo sapiens
Procedure: as §2
Drug-resistant cell lines (i.e., glioma: Hs683, U373, U251, U87, T98G; lung cancer: A549, H2073; uterine carcinoma: MES-SA/Dx5) were complemented with drug-sensitive cell lines, H1993 lung cancer and MES-SA uterine cancer, which were used as controls. […] The GI50 values were calculated after 48-96 hours of treatment with the indicated compounds in replicate using the MTT growth assay.

MES-SA/Dx5 cells = assay: MTT growth inhibition, MDR uterine sarcoma MES-SA/Dx5; format: cell-based, human; settings: for GI50: Homo sapiens, MES-SA/Dx5, MTT
Procedure: as §1, §2
Compound 4l was also evaluated against the MDR uterine sarcoma cell line (MES-SA/Dx5 to evaluate whether the compounds of the invention were substrates for the MDR cancer efflux systems. The MES-SA/Dx5 cell line was established from the parent uterine sarcoma MES-SA, grown in the presence of increasing concentrations of doxorubicin and is known to be resistant to a number of P-gp substrates.
The selection of doxorubicin-resistant cells (MES-SA/Dx5 cell line) was performed by splitting the cells and allowing the cells to adhere overnight. The next day, the cells were initially exposed to a DOX concentration of 100 nM, which represented the GI50 concentration. The cells were maintained at this DOX concentration until their growth rate reached that of the untreated cells. The DOX concentration was then increased in two-fold increments following the same growth criteria at each concentration to a final DOX concentration of 500 nM. Each new DOX concentration required approximately 2 passages to reach the growth rate of the untreated cells.
as §4

GBM 090909 cells = assay: MTT growth inhibition, primary GBM-derived neurosphere culture GBM 090909; format: cell-based; settings: Homo sapiens, Table 3, 48-96 h treatment, read-out: GI50 in vitro values, glioma GBM 090909
Procedure: Cell culture media were supplemented with 4 mM glutamine (Lonza code BE17-605E), 100 μg/mL gentamicin (Lonza code 17-5182), and penicillin-streptomycin (200 units/ml and 200 μg/ml) (Lonza code 17-602E). Primary GBM-derived neurosphere cultures from a patient undergoing surgical debulking were established using previously described methods. Briefly, resected tumor tissue was minced with a sterile scalpel and dissociated in 3 mL of neurobasal (NB) media containing 100 U/mL of collagenase (Life Technologies™) for 30 minutes at 37° C. Dissociated tissue was then vortexed and filtered using a sterile 70 um nylon Falcon™ cell strainer (Corning™). […]
as §3

Compound | GI50 (Hs683 cells; Hs 683, Table 5, 48-96 hours of treatment, read-out: GI50, Glioma Hs683) [µM] | GI50 (U373 glioblastoma cells; Table 5, 48-96 hours of treatment, read-out: GI50, Glioma U373) [µM] | GI50 (U251 cells; U-251, Table 5, 48-96 hours of treatment, read-out: GI50, Glioma U251) [µM] | GI50 (H1993 cells; NCI-H1993, Table 5, 48-96 hours of treatment, read-out: GI50, Lung Cancer H1993) [µM] | GI50 (MES-SA/Dx5 cells; Table 5, 48-96 hours of treatment, read-out: GI50, Sarcoma MES-SA/Dx5) [µM] | GI50 (Hs683 cells; Hs 683, Table 3, 48-96 h treatment, read-out: GI50 in vitro values, glioma Hs683) [µM] | GI50 (U373 glioblastoma cells; Table 3, 48-96 h treatment, read-out: GI50 in vitro values, glioma U373) [µM] | GI50 (U251 cells; U-251, Table 3, 48-96 h treatment, read-out: GI50 in vitro values, glioma U251) [µM] | GI50 (GBM 090909 cells) [µM] | GI50 (H1993 cells; NCI-H1993, Table 3, 48-96 h treatment, read-out: GI50 in vitro values, lung cancer H1993) [µM] | GI50 (MES-SA/Dx5 cells; Table 3, 48-96 h treatment, read-out: GI50 in vitro values, uterine sarcoma MES-SA/Dx5) [µM] | variation in activity, MDR cell line versus parent cell line (MES-SA/Dx5 cells; MES-SA/Dx5 versus MES-SA)
O=C1C=C[C@]23CC[N@](Cc4c2sc2ccccc42)[C@H]3C1 [Compound 5l] | 6 | 7 | 5 | 3 | 7 | – | – | – | – | – | – | –
O=C1C=CC2(C=C1)CCN(C(=O)C(F)(F)F)Cc1c2sc2ccccc12 [Compound 4l] | – | – | – | – | – | 5 | 7 | 4 | 7 | 12 | 5 | small variation in activity
